Tests used:
P388 [1] = assay: Antitumor activity against mouse P388 cells assessed as increase in life span of host; format: functional
PC-3 = assay: Cytotoxicity against human PC3 cells; format: functional, cell-based
[2] = Cytotoxicity against human H460 cells; format: functional, cell-based; conditions: NCI-H460
MCF7 = assay: Cytotoxicity against human MCF7 cells; format: functional, cell-based
HL-60 = assay: Cytotoxicity against human HL60 cells; format: functional, cell-based
P388 [3] = assay: Antitumor activity against mouse P388 cells graft model at 7.5 mg/kg, ip qd for 5 days; format: functional; conditions: route intraperitoneal
B16 = assay: Antitumor activity against mouse B16 cells graft model at 12.5 mg/kg, ip qd for 9 days; format: functional; conditions: route intraperitoneal

Row | Compound | IC50 [2] | IC50 (MCF7) | IC50 (HL-60) | other results
1 | Cc1c(COC(=O)NC(C)C)c(COC(=O)NC(C)C)c2n1CS(=O)(=O)C2 | – | – | – | Activity (P388 [1]): 118%
2 | CCNC(=O)OCc1c(COC(=O)NCC)c(-c2ccc(OC)cc2)n2c1Cc1ccccc1-2 | 13.2 µM | 25.9 µM | – | IC50 (PC-3): 30.2 µM
3 | CC(C)NC(=O)OCc1c(COC(=O)NC(C)C)c(-c2ccc(Cl)c(Cl)c2)n2c1CCC2 | – | – | 1.5 µM | –
4 | CNC(=O)OCc1c(COC(=O)NC)c(-c2ccc(OC)cc2)n2c1Cc1ccccc1-2 | 82.1 µM | 20 µM | – | –
5 | CC(C)NC(=O)OCc1c(COC(=O)NC(C)C)c(-c2ccc(F)cc2)n2c1SCC2 | – | – | 1.6 µM | –
6 | COc1ccc2c(c1)CCn1c(C)c(COC(=O)NC(C)C)c(COC(=O)NC(C)C)c1-2 | – | – | – | T/C (P388 [3]): 232%; T/C (B16): 180%
7 | CC(C)NC(=O)OCc1c(COC(=O)NC(C)C)c(-c2ccc(Cl)cc2)n2c1SCC2 | – | – | 0.85 µM | –
8 | COc1ccc(-c2c(COC(=O)NC(C)C)c(COC(=O)NC(C)C)c3n2-c2ccccc2C3)cc1 | 20.3 µM | 34.2 µM | – | IC50 (PC-3): 23.2 µM
9 | CC(C)NC(=O)OCc1c(COC(=O)NC(C)C)c(-c2ccccc2)n2c1SCC2 | – | – | 1.5 µM | –

— ChEMBL document CHEMBL2434849, “The development of bis(hydroxymethyl)pyrrole analogs as bifunctional DNA cross-linking agents and their chemotherapeutic potential” (Eur J Med Chem, 2013)
